Results: article PMC6193035, “Novel small molecules affecting cell membrane as potential therapeutics for avian pathogenic Escherichia coli” (Scientific Reports, 2018)
Values after ≈ are worked out from the molar mass of the structure shown. Marks after values point to notes of the source that are not given here.

Key:
APEC O78 [1] = assay: MIC and MBC determination in M63 media; format: cell-based, Escherichia coli
Procedure: (§1) One microlitre SM of each concentration was transferred to each well of a 96-well plate containing 100 µL of the 0.05 OD600 adjusted APEC O78 culture in M63 media. Growth was monitored in Sunrise - Absorbance microplate reader as described above. MIC was indicated by lowest concentration of SM with non-elevated OD600 measurement. MBC was determined by absence of APEC growth on LB agar plate following subculture. […] Two independent experiments were conducted.

APEC O2 = assay: MIC and MBC determination in M63 media; format: cell-based; conditions: Escherichia coli
APEC O8 = assay: MIC and MBC determination in M63 media; format: cell-based; conditions: Escherichia coli
APEC O115 = assay: MIC and MBC determination in M63 media; format: cell-based; conditions: Escherichia coli
APEC O109 = assay: MIC and MBC determination in M63 media; format: cell-based; conditions: Escherichia coli
APEC O78-53 = assay: MIC and MBC determination in M63 media; format: cell-based; conditions: Escherichia coli; APEC O78-53, M63 media
Procedure: as §1

APEC O2-211 = assay: MIC and MBC determination in M63 media; format: cell-based; conditions: Escherichia coli; APEC O2-211, M63 media
APEC O78 [2] = assay: Bacterial cytological profiling by confocal microscopy; format: cell-based, Escherichia coli; conditions: 2X MBC, 2 h
Procedure: Confocal microscopy was used for bacterial cytological profiling (BCP) to identify the cellular pathways targeted by SMs as described previously. […] After incubation, treated cultures were centrifuged, washed, and resuspended in 100 µL PBS. FM4-64 (#T13320 Molecular Probes/Invitrogen) (1 µg/mL) and SYTO-9 (#S34854 Molecular Probes/Invitrogen) (5 µM) were added to the bacterial cultures and incubated for 45 mins at room temperature with shaking at 150 rpm. Cultures were then centrifuged, washed, and resuspended in PBS to 1/10th volume of the original cultures.

APEC O78 [3] = assay: Crystal violet (CV) uptake assay; format: cell-based, Escherichia coli; conditions: 2X MBC, 30 mins; P < 0.05, Student's t-test
Procedure: (§2) Membrane permeability assays (crystal violet (CV) uptake and loss of 260/280 nm absorbing materials) were conducted as described previously. […] CV uptake was measured using the formula: (OD DMSO − OD SM/OD DMSO × 100). Two independent experiments in duplicates were conducted.

APEC O78 [4] = assay: Loss of 260/280 nm absorbing materials assay; format: cell-based, Escherichia coli; conditions: 2X MBC, 1 h
Procedure: as §2

[5] = system: intracellular APEC O1 in Caco-2 cells; assay: Intracellular survival assay; format: cell-based, Escherichia coli
Procedure: (§3) Intracellular survival assay was conducted as described previously[28],[29] to determine the effect of cidal SMs on APEC survival in phagocytic (HD11, THP-1) and non-phagocytic (Caco-2) cells. Briefly, mid-logarithmic phase grown APEC O78, O1, and O2 were washed and adjusted to 1 × 10^7 CFU/mL in cell culture incomplete media (no FBS and antibiotics). One-hundred microlitres adjusted APEC suspension was added at multiplicity of infection (MOI) 10 to wells of 96-well cell culture plate containing cultured macrophage (HD11, THP-1) and epithelial cells (Caco-2) and incubated for 1 h and 3 h, respectively. […] The cells were then lysed with 100 µL of 0.1% Triton X-100 for 5 mins, serially diluted, and plated on LB agar plate to enumerate viable bacteria. The intracellular bacteria in SMs treated wells were compared with DMSO (1%) treated wells. Two independent experiments in duplicate wells for each concentration of SMs were conducted.

[6] = system: intracellular APEC O1 in HD11 cells; assay: Intracellular survival assay; format: cell-based, Escherichia coli
Procedure: as §3

[7] = system: intracellular APEC O1 in THP-1 cells; assay: Intracellular survival assay; format: cell-based, Escherichia coli
Procedure: as §3

[8] = system: intracellular APEC O2 in Caco-2 cells; assay: Intracellular survival assay; format: cell-based, Escherichia coli
Procedure: as §3

[9] = system: intracellular APEC O2 in HD11 cells; assay: Intracellular survival assay; format: cell-based, Escherichia coli
Procedure: as §3

[10] = system: intracellular APEC O2 in THP-1 cells; assay: Intracellular survival assay; format: cell-based, Escherichia coli
Procedure: as §3

[11] = system: intracellular APEC O78 in Caco-2 cells; assay: Intracellular survival assay; format: cell-based, Escherichia coli
Procedure: as §3

[12] = system: intracellular APEC O78 in HD11 cells; assay: Intracellular survival assay; format: cell-based, Escherichia coli
Procedure: as §3

[13] = system: intracellular APEC O78 in THP-1 cells; assay: Intracellular survival assay; format: cell-based, Escherichia coli
Procedure: as §3

Compound: CC1CCCN(CCC(=O)c2ccc(Br)cc2)C1 (centres unmarked) [SM1]
- MBC relative to MIC (APEC O78 [1]): identical to MIC
- MIC (APEC O78 [1]; Escherichia coli): 200 µM (≈ 62 µg/mL)
- MBC (APEC O78 [1]; Escherichia coli, subculture on LB agar): 200 µM (≈ 62 µg/mL)
- MBC (APEC O2): 200 µM (≈ 62 µg/mL)
- MIC (APEC O2): 200 µM (≈ 62 µg/mL)
- MBC (APEC O8): 200 µM (≈ 62 µg/mL)
- MIC (APEC O8): 200 µM (≈ 62 µg/mL)
- MBC (APEC O115): 200 µM (≈ 62 µg/mL)
- MIC (APEC O115): 200 µM (≈ 62 µg/mL)
- MBC (APEC O109): 200 µM (≈ 62 µg/mL)
- MIC (APEC O109): 200 µM (≈ 62 µg/mL)
- MBC (APEC O78-53): 200 µM (≈ 62 µg/mL)
- MIC (APEC O78-53): 200 µM (≈ 62 µg/mL)
- MBC (APEC O2-211): 200 µM (≈ 62 µg/mL)
- MIC (APEC O2-211): 200 µM (≈ 62 µg/mL)
- cytological profile (FM4-64 / SYTO-9 staining) (APEC O78 [2]): filamentous or short rods (spheroplasts) morphology (PG synthesis inhibitors)
- uptake of crystal violet compared with DMSO (APEC O78 [3]): increased the uptake of crystal violet
- 260 nm absorbing materials in supernatant compared with DMSO (APEC O78 [4]): significantly (P < 0.05, Student’s t-test) increased
- 280 nm absorbing materials in supernatant compared with DMSO (APEC O78 [4]): significantly (P < 0.05, Student’s t-test) increased
- Absorbance 280 nm of treated supernatant (APEC O78 [4]; DMSO 2.58, superscript a P < 0.05 vs DMSO): 3.08^a
- Absorbance 260 nm of treated supernatant (APEC O78 [4]; DMSO 3.77, superscript a P < 0.05 vs DMSO): 4.00^a
- minimal effective concentration ([5]; Escherichia coli, O1, Caco-2, 6 h treatment, read-out: SMs intracellular APEC clearance concentration): > 400 µM
- concentration at which the SM significantly (P < 0.01) reduced intracellular APEC (superscript of t-statistic) ([5]; O1, Caco-2, 6 h): b (1X MIC)
- minimal effective concentration ([6]; Escherichia coli, O1, HD11, 6 h treatment, read-out: SMs intracellular APEC clearance concentration): 400 µM
- concentration at which the SM significantly (P < 0.01) reduced intracellular APEC (superscript of t-statistic) ([6]; O1, HD11, 6 h): a (0.5X MIC)
- minimal effective concentration ([7]; Escherichia coli, O1, THP-1, 6 h treatment, read-out: SMs intracellular APEC clearance concentration): 400 µM
- intracellular APEC clearance concentration as multiple of MIC (superscript) ([7]; O1, THP-1): b (2X MIC)
- concentration at which the SM significantly (P < 0.01) reduced intracellular APEC (superscript of t-statistic) ([7]; O1, THP-1, 6 h): a (0.5X MIC)
- minimal effective concentration ([8]; Escherichia coli, O2, Caco-2, 6 h treatment, read-out: SMs intracellular APEC clearance concentration): > 400 µM
- concentration at which the SM significantly (P < 0.01) reduced intracellular APEC (superscript of t-statistic) ([8]; O2, Caco-2, 6 h): b (1X MIC)
- minimal effective concentration ([9]; Escherichia coli, O2, HD11, 6 h treatment, read-out: SMs intracellular APEC clearance concentration): 200 µM
- intracellular APEC clearance concentration as multiple of MIC (superscript) ([9]; O2, HD11): a (1X MIC)
- concentration at which the SM significantly (P < 0.01) reduced intracellular APEC (superscript of t-statistic) ([9]; O2, HD11, 6 h): a (0.5X MIC)
- minimal effective concentration ([10]; Escherichia coli, O2, THP-1, 6 h treatment, read-out: SMs intracellular APEC clearance concentration): 200 µM
- concentration at which the SM significantly (P < 0.01) reduced intracellular APEC (superscript of t-statistic) ([10]; O2, THP-1, 6 h): b (1X MIC)
- minimal effective concentration ([11]; Escherichia coli, O78, Caco-2, 6 h treatment, read-out: SMs intracellular APEC clearance concentration): 200 µM
- intracellular APEC clearance concentration as multiple of MIC (superscript) ([11]; O78, Caco-2): a (1X MIC)
- concentration at which the SM significantly (P < 0.01) reduced intracellular APEC (superscript of t-statistic) ([11]; O78, Caco-2, 6 h): a (0.5X MIC)
- minimal effective concentration ([12]; Escherichia coli, O78, HD11, 6 h treatment, read-out: SMs intracellular APEC clearance concentration): 200 µM
- intracellular APEC clearance concentration as multiple of MIC (superscript) ([12]; O78, HD11): a (1X MIC)
- concentration at which the SM significantly (P < 0.01) reduced intracellular APEC (superscript of t-statistic) ([12]; O78, HD11, 6 h): a (0.5X MIC)
- minimal effective concentration ([13]; Escherichia coli, O78, THP-1, 6 h treatment, read-out: SMs intracellular APEC clearance concentration): 200 µM
- intracellular APEC clearance concentration as multiple of MIC (superscript) ([13]; O78, THP-1): a (1X MIC)
- concentration at which the SM significantly (P < 0.01) reduced intracellular APEC (superscript of t-statistic) ([13]; O78, THP-1, 6 h): a (0.5X MIC)
